From article PMC7073886, “Structure–Bioactivity Relationships of Lapatinib Derived Analogs against Schistosoma mansoni” (ACS Medicinal Chemistry Letters, 2020)

Tests used:
adult S. mansoni = assay: Phenotypic screen of adult S. mansoni worms, severity scores and descriptors; type: cell-based, Schistosoma mansoni; settings: for Descriptors (10 µM) 1 h / Severity Scores (10 μM) 1 h / Descriptors (10 µM) 5 h / Severity Scores (10 μM) 5 h / Severity Scores (10 μM) 24 h / Severity Scores (10 μM) 48 h / Descriptors (10 µM) 24 h / Descriptors (10 µM) 48 h: adult S. mansoni; for Descriptors (10 µM) 1 h / Descriptors (10 µM) 5 h / Descriptors (10 µM) 24 h / Descriptors (10 µM) 48 h: phenotypic descriptors; for Severity Scores (10 μM) 1 h / Severity Scores (10 μM) 5 h / Severity Scores (10 μM) 24 h / Severity Scores (10 μM) 48 h: scale 0 (no activity) to 4 (maximal activity); for bioactivity against adult S. mansoni: adult schistosomes; for Severity Scores (10 μM) 1 h / Severity Scores (10 μM) 5 h / Severity Scores (10 μM) 24 h / Severity Scores (10 μM) 48 h / bioactivity against adult S. mansoni: 10 μM
Excerpt: Because the schistosome parasite can present multiple and dynamic phenotypic responses to chemical insult,[16] we employ a constrained nomenclature of descriptors to describe the changes in the parasite as a function of time and concentration (e.g., motility, density, and shape; and in the case of the adult parasite, an inability to adhere to the bottom of the assay dish). These descriptors are converted into severity scores on a scale of 0 (green)–4 (severest/red) that allow for partially quantitative comparisons of compound effects.[1]−[19] […] The descriptors themselves and their respective scores are detailed in the Supporting Information, Table S1. Severity score data are presented in the results (with the corresponding descriptors detailed in the Supporting Information, Tables S2–S8), and eight new analogs developed and synthesized in support of this effort are described. Finally, absorption, distribution, metabolism and excretion (ADME) data of all compounds presented in this work are reported in the Supporting Information, Table S15.
Table S1. Descriptors and associated severity scores used for S. mansoni adults.
R (rounded or shape altered 1
On sides (adults unable to 1
Shrunk (adults are shorter 1
surface (tegument) of adults)
dfailed to create analytical method
Maintenance of the Schistosoma mansoni life cycle (NMRI isolate), the preparation of adult worms (≥ 42-
days-old), and their co-incubation with test compounds were as described.7-9 Phenotypic responses were
visually recorded using a constrained nomenclature and converted to severity scores on a scale from zero
(no activity) to 4 (maximal activity).8, 9 Use of hamsters for maintaining the S. mansoni life-cycle was
approved by the Institutional Animal Care and Use Committee of the University of California San Diego.
The human myelomonocytic cell line THP -1 was grown at 37 °C and 5% CO2 in RPMI-1640 supplemented
with 10% iFBS, 2 mM glutamate, 100 U/mL penicillin and […] streptomycin.
Drug toxicity to HepG2 cells .10 HepG2 cells line were obtained from the American Type Culture
Collection and cultured in Minimal Essential Medium (MEM) supplemented with 0.19% sodium
bicarbonate, 10% Fetal Bovine Serum, 2 mM L -glutamine, 0.1 mM MEM non-essential amino, 0.009
mg/mL insulin, 1.76 mg/mL bovine serum albumin. The viability of the cells was measured using the MTT
(thiazolyl blue reduction) method. Briefly, ninety -six-well plates were seeded with 2.5 × 10^4 cells/well in
170 ml of culture medium and incubated overnight in 5% CO 2 at 37 °C. Cells were exposed to different
experimental compounds in DMSO. After 48 hours incubation, the viability of the cells was assessed using
MTT (thiazolyl blue reduction) as a dose response assay (11 two -fold serial dilutions) to obtain a calculated
IC50 determination. 4-Azaindolo[2,1-b]quinazoline-6,12-dione is used as a toxicity positive control and
each assay plate includes the following 3 additional controls: a) background control: no cells and no drug
was added, b) target control: cells added but no drugs, and c) DMSO control: same as the target control
except the culture media contains 0.6% DMSO. Absorbance was determined in all wells using a Perkin
Elmer, Ensight plate reader. The fifty percent inhibitory concentrations (IC50’s) were determined using
GraphPad Prism nonlinear regr ession (sigmoidal dose -response, variable slope) equation .
ADME Experiment Protocols
Aqueous pH 7.4 Solubility. Compounds were dried down from 10 mM DMSO solutions using centrifugal
evaporation technique. Phosphate buffer (0.1 M pH 7.4) was added and StirStix were inserted in the glass
vials, with shaking then performed at a constant temperature of 25 °C for 20 -24 h. This step was followed
by double centrifugation with a tip wash in between, to ensure that no residues of the dried compounds
interfere. The solutions were diluted before analysis and quantification using LC/MS/MS was performed.

Rat hepatocyte Clint = type: in vitro ADME; settings: rat hepatocytes, intrinsic clearance; read-out: RH CLint
[1] = Log D7.4 shake-flask octanol-water; type: physicochemical; settings: pH 7.4
Experimental: Log D7.4. Shake-flask octanol-water distribution coefficient was determined at pH 7.4 (Log D7.4). The aqueous solution used is 10 mM sodium phosphate pH 7.4 buffer. The method has been validated for Log D7.4 ranging from -2 to 5.0.
Human Plasma Protein Binding (PPB). PPB was determined using equilibrium dialysis (RED device) to separate free from bound compound. The amount of compound in plasma (10 µM initial concentration) and in dialysis buffer (pH 7.4 phosphate buffer) was measured by LC-MS/MS after equilibration at 37 °C in a dialysis chamber. The fraction unbound (fu) is reported.
Human Liver Microsomal Clint. In vitro intrinsic clearance was determined from human liver microsomes using a standard approach.11 Following incubation and preparation, the samples were analyzed using […]
Rat Hepatocyte Clint. In vitro intrinsic clearance was determined from rat hepatocytes using a standard approach.11 Following incubation and preparation, the samples were analyzed using LC/MS/MS. Refined […]
Calculated LogP and LogD values. Both LogP and LogD predictions are based on a modified version of the method12 where the predicted partition coefficients are composed of the molecules’ atomic increments.
General Chemistry. All starting materials were commercially obtained and were used without further purification, unless specified. Reaction solvents were purified by passage through alumina columns on a purification system manufactured by Innovative Technology (Newburyport, MA). NMR spectra were obtained on Varian NMR systems, operating at 400 or 500 MHz for 1 H acquisitions. LCMS analysis was performed using a Waters AllianceHT e2795 reverse phase HPLC (Waters SunFire C18 4.6 × 50 mm, 3.5 μm column), with a Waters 2996 photodiode array detector scanning from 210 nm to 600 nm, and Waters Micromass ZQ detector (electrospray ionization). Where required, final compounds were purified by preparative reverse phase HPLC (columns Waters Symmetry RP8 30 × 50 mm, 5 μm column, or OBD RP18 30 × 50 mm, 5 μm), with a single wavelength UV−visible detector and Waters Micromass ZQ (electrospray ionization).

Row | hepatocyte CLint (Rat hepatocyte Clint) [µL/min/1e6 cells] | logD [1] | Structure (SMILES) | Descriptors (10 µM) 1 h (adult S. mansoni) | Severity Scores (10 μM) 1 h (adult S. mansoni) | Descriptors (10 µM) 5 h (adult S. mansoni) | Severity Scores (10 μM) 5 h (adult S. mansoni) | Severity Scores (10 μM) 24 h (adult S. mansoni) | Severity Scores (10 μM) 48 h (adult S. mansoni) | bioactivity against adult S. mansoni (adult S. mansoni) | Descriptors (10 µM) 24 h (adult S. mansoni) | Descriptors (10 µM) 48 h (adult S. mansoni)
1 | 52 | 3.3 | Cc1c(-c2cnc(N3CCN(C)CC3)nc2)ccc2c(Nc3cnccn3)ccnc12 [9a] | none | 0 | none | 0 | 1 | 2 | moderate potency after 24 h |  | 
2 | 23 | 2 | CN1CCN(c2ncc(-c3ccc4c(NCC5CCOCC5)ccnc4c3)cn2)CC1 [S1e] | none | 0 | none | 0 | 0 | 1 | no significant bioactivity | none | 
3 | 8.1 | 1.7 | CN1CCN(c2ncc(-c3ccc4c(N[C@@H]5CCCC[C@H]5O)ccnc4c3)cn2)CC1 [S1c] | none | 0 | none | 0 | 0 |  | no significant bioactivity | none | 
4 | 1 | 1.2 | CN1CCN(c2ncc(-c3ccc4c(NCCN5CCCC5)ccnc4c3)cn2)CC1 [S1b] | none | 0 | none | 0 | 0 | 1 | no significant bioactivity | none | 
5 |  | 1.7 | CN1CCN(c2ncc(-c3ccc4c(NC5CCOCC5)ccnc4c3)cn2)CC1 [S1d] | none | 0 | none | 0 | 0 | 0 | no significant bioactivity | none | none
6 | 4.2 | 0.3 | CN1CCN(c2ncc(-c3ccc4c(NC5CCC(N(C)C)CC5)ccnc4c3)cn2)CC1 (stereo not drawn) [S1a] | none | 0 | none | 0 | 0 |  | no significant bioactivity | none | 

More lines, now with the values behind:

Row | Structure (SMILES) | hepatocyte CLint (Rat hepatocyte Clint) [µL/min/1e6 cells] | logD [1] | Descriptors (10 µM) 1 h (adult S. mansoni) | Severity Scores (10 μM) 1 h (adult S. mansoni) | Descriptors (10 µM) 5 h (adult S. mansoni) | Severity Scores (10 μM) 5 h (adult S. mansoni) | Severity Scores (10 μM) 24 h (adult S. mansoni) | Severity Scores (10 μM) 48 h (adult S. mansoni) | bioactivity against adult S. mansoni (adult S. mansoni) | Descriptors (10 µM) 24 h (adult S. mansoni) | Descriptors (10 µM) 48 h (adult S. mansoni)
7 | O=C(O)CN1CCN(c2ncc(-c3ccc4c(Nc5cnccn5)ccnc4c3)cn2)CC1 [3b] | 8.9 | 0.7 | none | 0 | none | 0 | 0 | 0 | no bioactivity | none | none
8 | CN1C[C@H]2C[C@@H]1CN2c1ncc(-c2ccc3c(Nc4cnccn4)ccnc3c2)cn1 [4a] | 17 | 2.2 | none | 0 | none | 0 | 1 | 1 | minimal bioactivity was observed after 48 h |  | 
9 | CCCN1CCN(c2ncc(-c3ccc4c(Nc5cnccn5)ccnc4c3)cn2)CC1 [4c] | 45 | 4.2 | none | 0 |  | 1 | 2 | 4 | activity after 5 h | On sides, S | 
10 | Cc1cnc(Nc2ccnc3cc(-c4cnc(N5CCCN(C)CC5)nc4)ccc23)cn1 [5b] | 24 | 2.9 | none | 0 | none | 0 | 3 | 4 | bioactivity recorded after 24 h | Dark, S, on sides | 
11 | COc1ccc(NC(=O)c2ccc(-c3cnc(N4CCCN(C)CC4)nc3)cc2O)cc1Cl [7b] | 120 | 3.4 | none | 0 |  | 1 | 2 | 4 | minimal bioactivity after 5 h and potent activity after 48 h |  | 
12 | CN1CCN(c2ncc(-c3ccc4c(Nc5cnccn5)ccnc4c3)cn2)CC1 [compound 3] |  |  | none | 0 | none | 0 | 0 | 0 | no bioactivity | none | none
13 | CCN1CCCN(c2ncc(-c3ccc4c(Nc5cnccn5)ccnc4c3)cn2)CC1 [4e] | 30 | 2.7 | none | 0 | none | 0 | 0 | 0 |  | none | none
